In US4122034A, “Antimicrobial compositions” (Schering Corporation, priority 1975, dated 1978):
≈ marks a conversion by molar mass, not a printed value.

Key:
Peptostreptococcus = assay: In vitro activity against anaerobes in fluid Thioglycollate medium (Table II); type: cell-based
Method: (§1) All the tests were carried out and (when necessary) scored under standard conditions. "MIC" means "minimum inhibitory concentration."
(§2) In vitro activity of 2-aminoalkyl-3-phenylindoles of the formula I
(§3) against anaerobes in fluid Thioglycollate medium

Clostridium histolyticum = assay: as above; type: cell-based; conditions: Hathewaya histolytica
Method: as §1, §2, §3

Bacteroides fragilis = assay: as above; type: cell-based
Method: as §1, §2, §3

Bacteroides corrodens = assay: as above; type: cell-based; conditions: Eikenella corrodens
Method: as §1, §2, §3

Clostridium novyi = assay: as above; type: cell-based
Method: as §1, §2, §3

Clostridium septicum = assay: as above; type: cell-based
Method: as §1, §2, §3

[1] = system: Bacteroides melaninogenicus; assay: as above; type: cell-based
Method: as §1, §2, §3

Eubacterium lentum = assay: as above; type: cell-based; conditions: Eggerthella lenta
Method: as §1, §2, §3

[2] = Acute toxicity in mice (Table V); conditions: mouse, in vivo
Method: as §1
Acute Toxicity of 2-aminoalkyl-3-phenylindoles of the formula I

Proteus vulgaris = assay: In vitro antibacterial activity, dilution in Mueller Hinton Agar (Table I); type: cell-based; conditions: strain Napol, Mueller Hinton Agar pH 7.4
Method: as §1
(§4) In vitro Antibacterial Activity of 2-aminoalkyl-3-phenyl-
(§5) indoles of the formula I. Dilution in Mueller Hinton Agar pH 7.4

Klebsiella = assay: as above; type: cell-based
Method: as §1, §4, §5

Streptococcus pyogenes = assay: as above; type: cell-based
Method: as §1, §4, §5

Enterococcus = assay: as above; type: cell-based
Method: as §1, §4, §5

Pseudomonas acruginosa = assay: as above; type: cell-based
Method: as §1, §4, §5

Staphylococcus aureus = assay: as above; type: cell-based; conditions: Mueller Hinton Agar pH 7.4
Method: as §1, §4, §5

Proteus mirabilis = assay: as above; type: cell-based; conditions: Mueller Hinton Agar pH 7.4
Method: as §1, §4, §5

Trichophyton discoides = assay: In vitro antifungal activity, dilutions in Sabouraud's Dextrose Broth (Table IV); type: cell-based; conditions: after 96 hours
Method: as §1
(§6) In vitro Antifungal Activity of 2-amioalkyl-3-phenylindoles
(§7) of the formula I against Dermetophytes and Aspergillus.
(§8) Dilutions in Sabouraud's Dextrose Broth.

Epidermophyton floccosum = assay: as above; type: cell-based; conditions: after 96 hours
Method: as §1, §6, §7, §8

Trichophyton soudenense = assay: as above; type: cell-based; conditions: after 96 hours
Method: as §1, §6, §7, §8

[3] = system: Trichophyton schoenleinii; assay: as above; type: cell-based; conditions: 96 h
Method: as §1, §6, §7, §8

Tricoderm sp. = assay: as above; type: cell-based; conditions: after 96 hours
Method: as §1, §6, §7, §8

Microsporum nanum = assay: as above; type: cell-based; conditions: Nannizzia nana; after 96 hours
Method: as §1, §6, §7, §8

Trichophyton ferrugineum = assay: as above; type: cell-based; conditions: Microsporum ferrugineum; after 96 hours
Method: as §1, §6, §7, §8

Trichophyton tonsurans = assay: as above; type: cell-based; conditions: after 96 hours
Method: as §1, §6, §7, §8

[4] = system: Trichophyton mentagrophytes; assay: as above; type: cell-based; conditions: 96 h
Method: as §1, §6, §7, §8

Trichophyton megninii = assay: as above; type: cell-based; conditions: Trichophyton rubrum; after 96 hours
Method: as §1, §6, §7, §8

Trichophyton rubrum = assay: as above; type: cell-based; conditions: 96 h
Method: as §1, §6, §7, §8

Aspergillus niger 6275 = assay: as above; type: cell-based; conditions: after 96 hours
Method: as §1, §6, §7, §8

Trichophyton gallinae = assay: as above; type: cell-based; conditions: after 96 hours
Method: as §1, §6, §7, §8

Trichophyton ascoides = assay: as above; type: cell-based; conditions: after 96 hours
Method: as §1, §6, §7, §8

Microsporum distortum = assay: as above; type: cell-based; conditions: after 96 hours
Method: as §1, §6, §7, §8

Aspergillus sp. No. 3 = assay: as above; type: cell-based; conditions: after 96 hours
Method: as §1, §6, §7, §8

T. mentagrophytes = assay: Effect against topical T. mentagrophytes infections in guinea pigs (Table VI); type: in vivo; set-up: Average Sum of lesion scores, Days 1-5 / Average Sum of lesion scores, Days 1-10: scale not given here; conditions: for Average Sum of lesion scores, Days 1-5: untreated controls 14.8; for Average Sum of lesion scores, Days 1-10: untreated controls 38.2
Method: as §1
Effect of some 2-aminoalkyl-3-phenylindoles of the formula II
against topical T. mentagrophytes infections in guinea pigs.

Trychomonas vaginalis = assay: In vitro Anti-Trichomonal activity (Table VII); type: cell-based
Method: as §1
In vitro Anti-Trichomonal Activity of some 2-aminoalkyl-3-
phenyl-indenes of formula II.

## NCc1[nH]c2ccc(Cl)cc2c1-c1c(F)cccc1F [B, 2-aminomethyl-5-chloro-3-(2,6-difluorophenyl)indole]
Peptostreptococcus; 48 hrs
  MIC: 3 µg/mL (≈ 10.2 µM)
Peptostreptococcus; 72 hrs
  MIC: 3 µg/mL (≈ 10.2 µM)
Clostridium histolyticum; 48 hrs
  MIC: 7.5 µg/mL (≈ 25.6 µM)
Clostridium histolyticum; 72 hrs
  MIC: 7.5 µg/mL (≈ 25.6 µM)
Bacteroides fragilis; 48 hrs
  MIC: 3 µg/mL (≈ 10.2 µM)
Bacteroides fragilis; 72 hrs
  MIC: 3 µg/mL (≈ 10.2 µM)
Bacteroides corrodens; 48 hrs
  MIC: 7.5 µg/mL (≈ 25.6 µM)
Bacteroides corrodens; 72 hrs
  MIC: 7.5 µg/mL (≈ 25.6 µM)
Clostridium novyi; 48 hrs
  MIC: 7.5 µg/mL (≈ 25.6 µM)
Clostridium novyi; 72 hrs
  MIC: 7.5 µg/mL (≈ 25.6 µM)
Clostridium septicum; 48 hrs
  MIC: 3 µg/mL (≈ 10.2 µM)
Clostridium septicum; 72 hrs
  MIC: 3 µg/mL (≈ 10.2 µM)
[1]; 48 hrs
  MIC: 7.5 µg/mL (≈ 25.6 µM)
[1]; 72 hrs
  MIC: 17.5 µg/mL (≈ 59.8 µM)
Eubacterium lentum; 48 hrs
  MIC: 17.5 µg/mL (≈ 59.8 µM)
Eubacterium lentum; 72 hrs
  MIC: 17.5 µg/mL (≈ 59.8 µM)
[2]; Oral
  LD50: ~1000 mg/kg
[2]; ip, I.P.
  LD50: 225 mg/kg
[2]; sc, S.C.
  LD50: 900 mg/kg
Proteus vulgaris
  MIC: 17.5 µg/mL (≈ 59.8 µM)
Klebsiella; pH 7.4, strain 121, Mueller Hinton Agar pH 7.4
  MIC: 17.5 µg/mL (≈ 59.8 µM)
Klebsiella; pH 7.4, strain 3020, Mueller Hinton Agar pH 7.4
  MIC: 7.5 µg/mL (≈ 25.6 µM)
Klebsiella; pH 7.4, strain AD17, Mueller Hinton Agar pH 7.4
  MIC: 17.5 µg/mL (≈ 59.8 µM)
Klebsiella; pH 7.4, strain AD22, Mueller Hinton Agar pH 7.4
  MIC: 7.5 µg/mL (≈ 25.6 µM)
Klebsiella; pH 7.4, strain G3694, Mueller Hinton Agar pH 7.4
  MIC: 7.5 µg/mL (≈ 25.6 µM)
Streptococcus pyogenes; pH 7.4, strain 27, Mueller Hinton Agar pH 7.4
  MIC: 7.5 µg/mL (≈ 25.6 µM)
Streptococcus pyogenes; pH 7.4, strain C, Mueller Hinton Agar pH 7.4
  MIC: 17.5 µg/mL (≈ 59.8 µM)
Streptococcus pyogenes; pH 7.4, strain Cruz, Mueller Hinton Agar pH 7.4
  MIC: 3 µg/mL (≈ 10.2 µM)
Enterococcus; pH 7.4, strain 373, Mueller Hinton Agar pH 7.4
  MIC: 7.5 µg/mL (≈ 25.6 µM)
Enterococcus; pH 7.4, strain 0928/72, Mueller Hinton Agar pH 7.4
  MIC: 17.5 µg/mL (≈ 59.8 µM)
Pseudomonas acruginosa; pH 7.4, strain 130, Mueller Hinton Agar pH 7.4
  MIC: 17.5 µg/mL (≈ 59.8 µM)
Pseudomonas acruginosa; pH 7.4, strain 138, Mueller Hinton Agar pH 7.4
  MIC: 17.5 µg/mL (≈ 59.8 µM)
Pseudomonas acruginosa; pH 7.4, strain 762, Mueller Hinton Agar pH 7.4
  MIC: 17.5 µg/mL (≈ 59.8 µM)
Pseudomonas acruginosa; pH 7.4, strain 8709, Mueller Hinton Agar pH 7.4
  MIC: 17.5 µg/mL (≈ 59.8 µM)
Pseudomonas acruginosa; pH 7.4, strain Trav. 1, Mueller Hinton Agar pH 7.4
  MIC: 17.5 µg/mL (≈ 59.8 µM)
Staphylococcus aureus; 209P, pH 7.4, strain 209P
  MIC: 7.5 µg/mL (≈ 25.6 µM)
Staphylococcus aureus; pH 7.4, strain 59N
  MIC: 7.5 µg/mL (≈ 25.6 µM)
Staphylococcus aureus; pH 7.4, strain Gray
  MIC: 7.5 µg/mL (≈ 25.6 µM)
Staphylococcus aureus; pH 7.4, strain Wood
  MIC: 7.5 µg/mL (≈ 25.6 µM)
Staphylococcus aureus; pH 7.4, strain Zeigler
  MIC: 7.5 µg/mL (≈ 25.6 µM)
Proteus mirabilis; pH 7.4, strain Hard
  MIC: 17.5 µg/mL (≈ 59.8 µM)
Proteus mirabilis; pH 7.4, strain Peras
  MIC: 37.5 µg/mL (≈ 128 µM)
Trichophyton discoides
  MIC: 17.5 µg/mL (≈ 59.8 µM)
Epidermophyton floccosum
  MIC: 17.5 µg/mL (≈ 59.8 µM)
Trichophyton soudenense
  MIC: 17.5 µg/mL (≈ 59.8 µM)
[3]; strain 2, after 96 hours
  MIC: 7.5 µg/mL (≈ 25.6 µM)
[3]; strain not given, after 96 hours
  MIC: 17.5 µg/mL (≈ 59.8 µM)
Tricoderm sp.
  MIC: 7.5 µg/mL (≈ 25.6 µM)
Microsporum nanum
  MIC: 17.5 µg/mL (≈ 59.8 µM)
Trichophyton ferrugineum
  MIC: 37.5 µg/mL (≈ 128 µM)
Trichophyton tonsurans
  MIC: 200 µg/mL (≈ 683 µM)
[4]; strain A, after 96 hours
  MIC: 7.5 µg/mL (≈ 25.6 µM)
[4]; strain B, after 96 hours
  MIC: 7.5 µg/mL (≈ 25.6 µM)
[4]; strain C, after 96 hours
  MIC: 7.5 µg/mL (≈ 25.6 µM)
[4]; strain H377, after 96 hours
  MIC: 17.5 µg/mL (≈ 59.8 µM)
[4]; strain Young, after 96 hours
  MIC: 7.5 µg/mL (≈ 25.6 µM)
Trichophyton megninii
  MIC: 7.5 µg/mL (≈ 25.6 µM)
Trichophyton rubrum; strain 3, after 96 hours
  MIC: 17.5 µg/mL (≈ 59.8 µM)
Trichophyton rubrum; strain 360, after 96 hours
  MIC: 17.5 µg/mL (≈ 59.8 µM)
Trichophyton rubrum; strain Blehl, after 96 hours
  MIC: 17.5 µg/mL (≈ 59.8 µM)
Trichophyton rubrum; strain Haggerty, after 96 hours
  MIC: 17.5 µg/mL (≈ 59.8 µM)
Aspergillus niger 6275
  MIC: 37.5 µg/mL (≈ 128 µM)
Trichophyton gallinae
  MIC: 7.5 µg/mL (≈ 25.6 µM)
Trichophyton ascoides
  MIC: 17.5 µg/mL (≈ 59.8 µM)
Microsporum distortum
  MIC: 17.5 µg/mL (≈ 59.8 µM)
Aspergillus sp. No. 3
  MIC: 37.5 µg/mL (≈ 128 µM)
T. mentagrophytes; concentration 1%
  Average No. of Days to become negative, Cultures: 9.6 days
  Average No. of Days to become negative, Lesion: 14.2 days
  Average Sum of lesion scores, Days 1-5: 11.6
  Average Sum of lesion scores, Days 1-10: 20.0
T. mentagrophytes; concentration 4%
  Average No. of Days to become negative, Cultures: 5.0 days
  Average No. of Days to become negative, Lesion: 7.2 days
  Average Sum of lesion scores, Days 1-5: 9.2
  Average Sum of lesion scores, Days 1-10: 10.0
Trychomonas vaginalis; 50% suppression, read-out: Minimal Level to Produce 50% Suppression
  IC50: 32 µg/mL (≈ 109 µM)
Trychomonas vaginalis; 90% suppression, read-out: Minimal Level to Produce 90% Suppression
  IC90: 75 µg/mL (≈ 256 µM)
